Results from patent US20080207738A1, “DRUG COMBINATIONS TO TREAT DRUG RESISTANT TUMORS” (priority 2007, published 2008).
Read-outs that look alike come from different tables or passages of the source.

Experiments:
MCF-7/ADR cells = assay: MTT cell viability, MCF-7/ADR cells; assay type: cell-based, human; conditions: 72 h, CCcompound104 5 μg/ml, EA 60 μM, CCcompound26/CCcompound3/CCcompound19 50 μM, alone or combined
Description: MCF/ADR cells were selected by incubating the parent MCF-7 with toxic concentrations (up to 10 μM) of adriamycin (doxorubicin). The selected drug resistant cells express both MDR1 and MRP1 among other molecular alterations as reviewed earlier [Kiss, Z., Tomono, M. and Anderson, W. B. (1994), “Phorbol ester selectively stimulates the phospholipase D-mediated hydrolysis of phosphatidylethanolamine in multidrug-resistant MCF-7 human breast carcinoma cells,” Biochem. J., 302, 649-654]. […] Ethacrynic acid (EA) alone, used at 60 μM concentration, decreased cell viability by about 24%, while CCcompound104 and EA in combination had 70% inhibitory effects (Table 7). In this cell line CCcompound104 and EA decreased cell viability synergistically.

in vitro = conditions: human
From the text: (§1) For the determination of relative number of viable cells before and after treatments, in most cases the MTT assay was used. This calorimetric assay is based on the ability of living cells, but not dead cells, to reduce 3-(4, 5-dimethyl thiazol-2-yl)-2, 5-diphenyltetrazolium bromide [Carmichael, J, De Graff, W. G., Gazdar, A. F., Minna, J. D. and Mitchell, J. B. (1987), “Evaluation oftetrazolium-based semiautomated calorimetric assay: Assessment of chemosensitivity testing,” Cancer Res., 47, 936-942]. For this assay, cells were plated in 96-well plates (10,000-30,000 cells in case of cultured cells, 100,000 cells in case of healthy lymphocytes, and 200,000 cells in case of chronic lymphocytic leukemia or non-Hodgkin lymphocytes) in the respective incubation media. After a 24-h resting period, the cells were treated with the test agents and then incubated (in CO2 incubator under humidified atmosphere) for 72 hours (final incubation volume, 150 μl). The MTT assay was performed both with the untreated and treated cell cultures at the conclusion of the incubation. Often, the MTT assay also was performed at the start of treatments to allow assessment of proliferation rates in the control and treated cell cultures. All data presented are the average of 4 incubations (in 4 separate wells) with the same cell population.
Peripheral lymphocytes are known to be very sensitive to chemotherapy and this sensitivity often limits the dose of chemotherapy that can be employed. In this series of experiments, the combined effects of CCcompound104 alone or in combination with CCcompound26 or CCcompound3 were determined on the viability of peripheral lymphocytes to establish doses that reduce cell viability less than 50%. As in previous experiments, the treatments were performed for 72 hours.

CLL cells = assay: cells; conditions: Homo sapiens, CLL cell; for cytotoxicity at 5 µM: 72 h, CCcompound3 5 μM, alone or combined
Description: Heparinized peripheral-blood samples were obtained from chronic lymphocytic leukemia patients with more than 70% malignant cells after informed consent, in accordance with the Declaration of Helsinki. The blood samples (10-ml) were diluted 1:1 with cold phosphate buffered saline (PBS; 0.135 M NaCl, 2.7 mM KCl, 1.5 mM KH2PO4, 8 mM Na2HPO4 [pH 7.4]) and layered onto Ficoll-Hypaque (8-ml, specific gravity, 1.086; Life Technologies, Grand Island, N.Y.). Then, the blood was centrifuged at 433 g for 20 min, and mononuclear cells were removed from the interphase. Cells were washed twice with cold PBS and after each centrifugation step the pelleted cells were resuspended in 10-ml RPMI 1640 supplemented with 10% fetal bovine serum (inactivated for 30 min at 56° C.). A Coulter channelyzer (Coulter Electronics, Hialeah, Fla.) was used to determine the cell number. Then the number of cells was adjusted to 1×10^7 cells per 1 ml before using them for the experiments.
as §1

[1] = tested on: lymphoma cells derived from non-Hodgkin patients; assay: MTT cell viability, lymphoma cells from non-Hodgkin patients; assay type: cell-based; conditions: Homo sapiens, 72 h, CCcompound104 5 μg/ml, CCcompound26 1 μM, read-out: Inhibition (%) of viability
Description: Lymphoma cells derived from two non-Hodgkin lymphoma patients were treated with EA (15 μM) in the absence or presence of CCcompound104 (5 μg/ml)+CCcompound26 (1 μM) for 72 hours. […] However, the 3 agents together decreased the number of viable cells by 91 and 97%, respectively (Table 13).

MCF-7 cells = assay: Cell viability, MCF-7 cells; assay type: cell-based; conditions: Homo sapiens, MCF7, 72 h, read-out: decrease of cell viability
Description: The MCF-7 cells were isolated from a human mammary tumor. After combined treatments with 5 μg/ml of CCcompound104 and 1 μM of CCcompound26 for 72 hours, the viability of these cells was decreased by 42%. EA (30 μM) alone decreased cell viability by 32%, while the 3 agents together decreased cell viability about 100% (i.e. practically no viable cells remained after the treatments).

[2] = tested on: parent L5178 mouse T-cell lymphoma cells; assay: MTT cell viability, parent L5178 cells; conditions: L5178Y, 30,000 cells per well, 72 h
From the text: as §1
Parent L5178 cells were seeded at 10,000 cells per well in 96-well plates and then incubated for 72 hours in the absence or presence of CCcompound104 (1 or 5 μg/ml) and various concentrations of CCcompound26 as indicated in Table 5.
(§2) Epirubicin, like doxorubicin and other antracyclins, is an MDR1 substrate. The goal of this experiment was to use epirubicin as a model compound to determine if in L5178/MDR1 cells CCcompound104 also can enhance the effects of MDR1 substrate anti-cancer agents other than CCcompound26 and other thioxanthene or thioxanthone CC compounds. The parent and MDR1 expressing cells were seeded at 30,000 cells per well in 96-well microplates and after a 24-h resting period treated with increasing concentrations of epirubicin n in the absence or presence of 5 μg/ml of CCcompound104 for 72 hours.

[3] = tested on: L5178/MDR1 mouse T-cell lymphoma cells; assay: cells; conditions: mouse, 72 h
From the text: as §1
L5178/MDR1 cells were seeded at 10,000 cells per well in 96-well plates and then incubated for 72 hours in the absence or presence of 5 μg/ml of CCcompound104 and various concentrations of CCcompound26 as indicated in Table 6.
as §2

## CC[N+](C)(CC)CCOCc1ccc2sc3ccccc3c(=O)c2c1 [CCcompound3]
MCF-7/ADR cells
  Inhibition (%) of viability: 20.0%
In vitro; Inhibition (%) of viability
  cytotoxicity at 72 h, 1 μM: 0%
In vitro; decrease of viability of healthy lymphocytes
  cytotoxicity at 72 h, 50 μM: 6%
CLL cells; read-out: Inhibition (%) of viability, CLL patient 8, CCcompound104 5 μg/ml
  cytotoxicity at 5 µM: 7.8%
CLL cells; read-out: Inhibition (%) of viability, CLL patient 9, CCcompound104 5 μg/ml
  cytotoxicity at 5 µM: 11.1%
CLL cells; read-out: Inhibition (%) of viability, CLL patient 10, CCcompound104 5 μg/ml
  cytotoxicity at 5 µM: 32%
CLL cells; read-out: Inhibition (%) of viability, CLL patient 11, CCcompound104 5 μg/ml
  cytotoxicity at 5 µM: 33.3%
CLL cells; read-out: Inhibition (%) of viability, CLL patient 12, CCcompound104 5 μg/ml
  cytotoxicity at 5 µM: 26%
CLL cells; read-out: Inhibition (%) of viability, CLL patient 13, CCcompound104 5 μg/ml
  cytotoxicity at 5 µM: 12.5%
CLL cells; read-out: Inhibition (%) of viability, CLL patient 14, CCcompound104 5 μg/ml
  cytotoxicity at 5 µM: 36.3%
CLL cells; read-out: Inhibition (%) of viability, CLL patient 15, CCcompound104 5 μg/ml
  cytotoxicity at 5 µM: 3.3%
CLL cells; read-out: Inhibition (%) of viability, CLL patient 16, CCcompound104 5 μg/ml
  cytotoxicity at 5 µM: 50.1%
CLL cells; read-out: Inhibition (%) of viability, CLL patient 17, CCcompound104 5 μg/ml
  cytotoxicity at 5 µM: 0%
CLL cells; read-out: Inhibition (%) of viability, CLL patient 18, CCcompound104 5 μg/ml
  cytotoxicity at 5 µM: 6%
CLL cells; read-out: Inhibition (%) of viability, CLL patient 19, CCcompound104 5 μg/ml
  cytotoxicity at 5 µM: 9.2%
CLL cells; read-out: Inhibition (%) of viability, CLL patient 20, CCcompound104 5 μg/ml
  cytotoxicity at 5 µM: 0%

## C[N+](C)(C)CCC=C1c2ccccc2Sc2ccccc21.[I-] [CCcompound19, N,N,N-trimethyl-3-(9H-thioxanthen-9-ylidene)-propan-1-aminium iodide]
MCF-7/ADR cells
  Inhibition (%) of viability: 20.2%

## C=C(CC)C(=O)c1ccc(OCC(=O)O)c(Cl)c1Cl [EA, ethacrynic acid]
MCF-7/ADR cells; Homo sapiens, NCI/ADR-RES, read-out: Inhibition (%) of viability
  cytotoxicity at 60 µM: ~24%
CLL cells; read-out: Inhibition (%) of viability, resistant CLL cells, patient 17, EA 30 μM, CCcompound104 5 μg/ml, CCcompound26 1 μM
  cytotoxicity at 30 µM: 31.8%
CLL cells; read-out: Inhibition (%) of viability, resistant CLL cells, patient 18, EA 30 μM, CCcompound104 5 μg/ml, CCcompound26 1 μM
  cytotoxicity at 30 µM: 38.3%
CLL cells; read-out: decrease of viability of resistant CLL cells, over patients 17 and 18, EA 30 μM, CCcompound104 5 μg/ml, CCcompound26 1 μM
  cytotoxicity at 30 µM: 31 to 38%
[1]; non-Hodgkin patient 1, EA 15 μM
  cytotoxicity at 15 µM: 36.8%
[1]; non-Hodgkin patient 2, EA 15 μM
  cytotoxicity at 15 µM: 42.4%
[1]; non-Hodgkin patient 3, EA 15 μM
  cytotoxicity at 15 µM: 48.2%
[1]; non-Hodgkin patient 4, EA 15 μM
  cytotoxicity at 15 µM: 53.1%
MCF-7 cells
  cytotoxicity at 30 µM: 32%

## COc1cccc2c1C(=O)c1c(O)c3c(c(O)c1C2=O)C[C@@](O)(C(=O)CO)C[C@@H]3O[C@H]1C[C@H](N)[C@@H](O)[C@H](C)O1 [Epirubicin, epirubicin, reference compound]
[2]; Epirubicin 0.156 μg/ml without or with CC104 5 μg/ml
  Inhibition (%) of viability: 6.1%
[2]; Epirubicin 0.312 μg/ml without or with CC104 5 μg/ml
  Inhibition (%) of viability: 41.5%
[2]; Epirubicin 0.625 μg/ml without or with CC104 5 μg/ml
  Inhibition (%) of viability: 98.6%
[2]; Epirubicin 1.250 μg/ml without or with CC104 5 μg/ml
  Inhibition (%) of viability: 100%
[2]; Epirubicin 2.500 μg/ml without or with CC104 5 μg/ml
  Inhibition (%) of viability: 100%
[2]; Epirubicin 5.000 μg/ml without or with CC104 5 μg/ml
  Inhibition (%) of viability: 100%
[3]; 0.156 µg/ml
  Inhibition (%) of viability: 0%
[3]; 0.312 μg/ml
  Inhibition (%) of viability: 0%
[3]; 0.625 μg/ml
  Inhibition (%) of viability: 0%
[3]; 1.25 μg/ml
  Inhibition (%) of viability: 0%
[3]; 2.5 μg/ml
  Inhibition (%) of viability: 12.2%
[3]; 5 μg/ml
  Inhibition (%) of viability: 32.4%
